Results on 1 compound are retold here after US20080167358A1, “Methods for Obtaining a Fast Dissolving Imidapril Powder” (priority 2005, published 2008).

SMILES strings stand for the structures.

A short description of the data set: Dissolution time of a quantity corresponding to 75 mg of Imidapril in 30 ml of water at room temperature. Type of data set: physicochemical. The note with it: quantity of formulation corresponding to 75 mg of Imidapril added to 30 ml of stirred water at room temperature. Here is the method:
This crystalline condition makes it possible to obtain a quick dissolution Imidapril powder, i.e., having a total dissolution time of the powder of 30 sec for a quantity of 75 mg of Imidapril in 30 ml of water at room temperature (25° C.). […] The apparent dissolution time is noted.

Consider `CCOC(=O)[C@H](CCc1ccccc1)N[C@@H](C)C(=O)N1C(=O)N(C)C[C@H]1C(=O)O` [Standard Imidapril, Imidapril], for which the “Time (s) (apparent dissolution time)” value is reported as 420 s.
